A word on the IC50: it is the concentration that gives 50% inhibition.

The target of assay [1] is T1, recombinant GSTP1 lysates (Homo sapiens, UniProt P09211).
T1 construct: FLAG (C); host or cells: HEK293T, transient transfection; soluble proteome used unpurified
Put plainly: GSTP1 biochemical substrate assay (GSH conjugation to BDNB). The following applies: inhibitor 30 min at 37° C.; n=3; read-out: IC50, in vitro potency against GSTP1 by GSH substrate assay. Here is the method:
GSTP1 Biochemical Substrate Assay
Recombinant GSTP1-HEK293T soluble cell proteomes were diluted to 1 mg ml^−1 in assay buffer (100 mM NaH2PO4, pH 7.0). Samples were treated with inhibitor at indicated concentrations for 30 min at 37° C. GSH stock solution (250 mM in water) was diluted to 4 mM in assay buffer and 25 μl of diluted GSH solution was added to each sample. A substrate stock solution of 75 mM 1-bromo-2,4-dinitrobenzene […] in ethanol was diluted to 2 mM in assay buffer. Samples (25 μl) were aliquoted into a 96-well plate and spun briefly via centrifuge. Next, 50 μl of 2 mM BDNB was added to each well and the reaction was monitored in kinetic mode by measuring absorbance at 340 nm for 10 min on a BMG Labtech CLARIOstar plate reader (BMG Labtech, Cary, North Carolina, United States of America).

A further assay deals with T2, human DPP3 (hDPP3) (Homo sapiens, UniProt Q9NY33).
T2 construct: FLAG (C); host or cells: HEK293T, transient transfection; soluble proteome used unpurified
T2 sequence (Q9NY33 1-737): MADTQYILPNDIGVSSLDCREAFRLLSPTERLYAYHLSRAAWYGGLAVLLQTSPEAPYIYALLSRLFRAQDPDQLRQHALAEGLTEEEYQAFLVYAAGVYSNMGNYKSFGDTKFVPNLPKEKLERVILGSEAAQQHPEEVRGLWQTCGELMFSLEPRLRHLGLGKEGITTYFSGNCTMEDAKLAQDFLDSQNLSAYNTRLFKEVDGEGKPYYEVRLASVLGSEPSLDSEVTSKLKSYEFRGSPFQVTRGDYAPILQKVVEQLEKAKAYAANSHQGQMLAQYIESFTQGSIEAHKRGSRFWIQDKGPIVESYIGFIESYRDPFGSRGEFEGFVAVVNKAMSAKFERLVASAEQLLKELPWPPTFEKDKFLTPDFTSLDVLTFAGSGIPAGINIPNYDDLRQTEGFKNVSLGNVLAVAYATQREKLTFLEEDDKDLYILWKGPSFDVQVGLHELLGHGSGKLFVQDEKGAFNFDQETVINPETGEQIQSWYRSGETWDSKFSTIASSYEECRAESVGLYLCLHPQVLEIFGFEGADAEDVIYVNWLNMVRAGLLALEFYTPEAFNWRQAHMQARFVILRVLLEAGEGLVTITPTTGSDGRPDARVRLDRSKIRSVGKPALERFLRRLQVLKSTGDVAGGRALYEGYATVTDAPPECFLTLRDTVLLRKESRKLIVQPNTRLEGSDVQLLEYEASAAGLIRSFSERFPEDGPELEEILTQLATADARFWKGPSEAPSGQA
The assay can be described thus: Gel-based competitive chemical proteomic screen with HHS-482, recombinant hDPP3-HEK293T soluble proteomes. Format: binding. The following applies: 50 μM fragment, 37° C., 30 min; also substantial proteome cross-reactivity. The protocol:
(§1) Gel-Based Chemical Proteomic Assay
(§2) Cell pellets were lysed in PBS and fractionated (100,000×g, 45 min, 4° C.) to generate soluble and membrane fractions. Protein concentrations were determined using Bio-Rad DC protein assay (Bio-Rad Laboratories, Inc., Hercules, California, United States of America), and adjusted to 1 mgml^−1 in PBS. Proteome samples (49 μl aliquots) were treated with DMSO vehicle or indicated concentration of SuTEx fragment (1 μL, 50× stock in DMSO) for 30 min at 37° C. Samples were then treated with HHS-482 probe (1 μL, 2.5 mM stock in DMSO) for 30 min at 37° C. Probe labeled samples were conjugated to rhodamine-azide (1 μL, 1.25 mM stock; final concentration of 25 μM) by copper-catalyzed azide-alkyne cycloadditions (CuAAC) for 1 h at room temperature followed by SDS-PAGE and in-gel fluorescence scanning as previously described^57.

For the next assay, the target named is T3, human GSTP1 (hGSTP1) (Homo sapiens, UniProt P09211).
T3 construct: FLAG (C); host or cells: HEK293T, transient transfection; soluble proteome used unpurified
Put plainly: Gel-based competitive chemical proteomic screen with HHS-482, recombinant hGSTP1-HEK293T soluble proteomes. It is filed as binding. The following applies: fragment 50 μM, 30 min, 37° C. Here is the method:
as §1, §2

For the next assay, the target named is T4, GSTP1 Y8 (Homo sapiens, UniProt P09211).
T4 construct: endogenous in cells; host or cells: DM93 melanoma cells (SILAC)
The assay can be described thus: Quantitative chemical proteomics of live SILAC DM93 cells treated with SuTEx fragments. Format: cell-based. The conditions noted are these: 50 μM compound, 1.5 hr, 37° C. Here is the method:
Live Cell Evaluation of Sulfonyl-Triazole Fragments
(§3) Cells grown to ˜90% confluency in 10 cm plates were treated with DMSO vehicle or SuTEx fragment (10 μl of 1,000× stock) in serum-free media for the indicated concentrations and times at 37° C. with 5% CO2. After treatment, cells were washed with cold PBS twice before collection and preparation for gel-based chemical proteomic evaluation as described above. For LC-MS studies, protein concentrations were normalized to 2.3 mg ml^−1 and 432 μl (for 1 mg final protein amount) were used for sample preparation as detailed below.
Heavy and light proteomes (432 μl of each) were diluted to 2.3 mg ml^−1 in PBS and sample aliquots (432 μl) were treated with SuTEx fragment at the indicated concentrations (5 μl, 100× stock in DMSO), mixed gently and incubated for 30 min at 37° C. Samples were then treated with HHS-482 (5 μL, 5 mM stock in DMSO) for 30 min at 37° C. Probe-modified proteomes were conjugated to desthiobiotin-PEG3-azide followed by enrichment of probe-modified peptides for nano-electrospray ionization-LC-MS/MS analyses as previously described^57.
Next, SILAC DM93 cells were treated with JWB152 or JWB198 to determine whether these SuTEx fragments could ligand Y8 of endogenous GSTP1 in living systems (50 μM compound, 1.5 hr, 37° C.). Cells were pretreated with DMSO vehicle or SuTEx fragments followed by cells lysis, HHS-482 labeling of proteomes, and quantitative chemical proteomics.

For a further assay, the target named is T5, GSTP1 (Homo sapiens, UniProt P09211).
T5 construct: FLAG (C); expressed in transfected cells; host or cells: HEK293T
The assay can be described thus: Gel-based evaluation of proteomes from recombinant GSTP1-HEK293T cells treated with SuTEx fragments. Format: cell-based. The conditions noted are these: 50 μM compounds, 4 hr. Here is the method:
as §2, §3

The target of assay [2] is T6, membrane proteins in human cell proteomes (Homo sapiens, UniProt P51970).
T6 construct: endogenous in cells
Put plainly: Chemical proteomic identification of membrane protein lysine sites modified by TH211. Format: binding. The following applies: NDUA8 human, Uniprot P51970; amino acid modified K. Here is the method: (§4) The light proteome aliquots (2.3 mg/mL, 432 μL) were treated with the probe (5 μL, 100× fresh stock in DMSO) and the heavy proteome aliquots were treated with either the same probe or DMSO (no probe) at 37° C. for 1 h. Then the samples were subjected to click reaction with the desthiobiotin-PEG3-azide (10 mM in DMSO, 10 μL, final concentration 200 μM) in the presence of TCEP (50 mM, 10 μL), TBTA (1.7 mM, 33 μL) and CuSO4 (50 mM, 10 μL) at room temperature for 1 h. The light and the heavy were mixed in the chloroform-methanol extraction step. The subsequent steps including reduction with dithiothreitol, alkylation with iodoacetamide, digestion with Trypsin/Lys-C, enrichment with avidin beads were conducted as previously described.^72,51
(§5) Data acquisition: The enriched peptide samples were analyzed by LC-MS/MS on an Easy-nLC 1200 (Thermo Scientific, Waltham, Massachusetts, United States of America) coupled with an Orbitrap Q Exactive Plus mass spectrometer (Thermo Scientific, Waltham, Massachusetts, United States of America). […] A top 10 data-dependent acquisition method was used, which consisted of one full scan […] scan (m/z 375-1,500) followed by ten MS2 scans of the most abundant ions recorded in the […] scan.
(§6) Data analysis: Identification of peptides and target proteins from the LC-MS/MS raw data was achieved using the Byonic software package (Protein Metrics Inc., Cupertino, California, United States of America) to search against a modified human protein database (UniProt human protein database, angiotensin I and vasoactive intestinal peptide standards; 40660 proteins) with parameters previously described.^72 Identification of probe-modified peptides was accomplished with variable (common) modification of +635.27374 Da for TH211, +608.26284 for TH214, +578.25228 for TH216 on tyrosine and lysine residues. Other added mass such as variable methionine oxidation (+15.9949 Da), fixed cysteine carbamidomethylation (+57.02146 Da) and the SILAC heavy amino acids (+10.0083 Da for R, +8.0142 Da for K) were included in search. The results from Byonic search were imported into Skyline-daily to determine SILAC ratio (SR) of light/heavy peptides.^51 To account for variations in mixing and sample preparation, SRs of peptide from probe/no-probe (the light was treated with the probe while the heavy was treated with DMSO) were normalized to those from probe/probe (both the light and the heavy were treated with the probe). Unless otherwise stated, the results from Skyline-daily output were filtered in R to keep peptides of high quality that meet the following criteria: Byonic score ≥300; a precursor mass error within 5 ppm; normalized SR≥5, with both isotop dot-product (iDOTP) and ratio dot-product (rDOTP)≥0.8. Comparison of probe-modified sites across all probes and cells were performed using the R package ggplot2 and Venn diagrams were generated with the VennDiagram R package.^72 Other bioinformatics analysis such as the domain enrichment analysis and the DrugBank analysis were performed as previously described.^72

In assay [3] the target is T7, membrane proteins in human cell proteomes (Homo sapiens, UniProt Q02750).
T7 construct: endogenous in cells
Described as above. The conditions noted are these: MP2K1 human, Uniprot Q02750; amino acid modified K. It is filed as binding. Here is the method:
as §4, §5, §6

Assay [4] addresses T8, membrane proteins in human cell proteomes (Homo sapiens, UniProt Q9BQB6).
T8 construct: endogenous in cells
The description is as above. It is filed as binding. The following applies: VKOR1 human, Uniprot Q9BQB6, amino acid modified K. Here is the method: as §4, §5, §6

For assay [5], the target named is T9, membrane proteins in human cell proteomes (Homo sapiens, UniProt Q9P032).
T9 construct: endogenous in cells
The assay is described as above. Format: binding. The following applies: NDUF4 human, Uniprot Q9P032; amino acid modified K. The protocol: as §4, §5, §6

For assay [6], the system named is membrane proteins in human cell proteomes. The description is as above. It is filed as binding. The following applies: amino acid modified K. The protocol:
as §4, §5, §6

The target in assay [7] is T10, recombinant human diacylglycerol kinase-alpha (DGKA) (Homo sapiens, UniProt P23743).
T10 construct: FLAG (N); made in house; host or cells: HEK293T, transient transfection; lysate used unpurified
Put plainly: Gel-based probe labeling of recombinant DGKA with TH SuTEx probes. It is filed as binding. The following applies: FIG. 39D, left panel. The protocol: as §1
Proteome aliquots (2 mg/mL, 49 μL) were treated with probes at indicated concentration (1 μL, 50× stock in DMSO) at 37° C. for 1 h. The subsequent conjugation with fluorophore was accomplished by copper-catalyzed azide-alkyne cycloaddition (CuAAC) with rhodamine-azide (TAMRA-azide, 1.25 mM, 1 μL, final concentration of 25 μM) in the presence of tris(2-carboxyethyl)phosphine (TCEP, 50 mM fresh in water, 1 μL, final concentration of 1 mM), tris[(1-benzyl-1H-1,2,3-triazol-4-yl)methyl]amine (TBTA, 1.7 mM in 4:1 t-butanol/DMSO, 3 μL, final concentration of 100 μM) and CuSO4 (50 mM, 1 μL, final concentration of 1 mM). For samples of live cell treatment, it started with click reaction without the step of the probe treatment in vitro. After 1 h incubation at room temperature, reactions were quenched by adding 4×SDS-PAGE loading buffer and beta-mercaptoethanol (17 μL) and samples were resolved by SDS-PAGE followed by in-gel fluorescence scanning.

T8 sequence (Q9BQB6 whole entry): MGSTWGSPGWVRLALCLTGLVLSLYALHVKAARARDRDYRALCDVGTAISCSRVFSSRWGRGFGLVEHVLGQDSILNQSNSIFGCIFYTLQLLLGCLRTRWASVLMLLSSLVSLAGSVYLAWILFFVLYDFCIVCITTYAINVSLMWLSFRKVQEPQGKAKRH
T6 sequence (P51970 whole entry): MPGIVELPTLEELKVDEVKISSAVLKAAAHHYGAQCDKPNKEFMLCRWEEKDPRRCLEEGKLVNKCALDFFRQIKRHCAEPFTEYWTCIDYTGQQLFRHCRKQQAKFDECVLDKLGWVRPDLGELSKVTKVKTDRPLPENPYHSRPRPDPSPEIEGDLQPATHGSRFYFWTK
T9 sequence (Q9P032 whole entry): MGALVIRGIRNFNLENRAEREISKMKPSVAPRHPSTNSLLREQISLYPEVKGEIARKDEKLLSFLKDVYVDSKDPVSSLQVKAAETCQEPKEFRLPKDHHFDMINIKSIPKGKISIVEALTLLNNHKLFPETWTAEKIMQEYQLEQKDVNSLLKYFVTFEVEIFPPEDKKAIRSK
T10 sequence (P23743 whole entry): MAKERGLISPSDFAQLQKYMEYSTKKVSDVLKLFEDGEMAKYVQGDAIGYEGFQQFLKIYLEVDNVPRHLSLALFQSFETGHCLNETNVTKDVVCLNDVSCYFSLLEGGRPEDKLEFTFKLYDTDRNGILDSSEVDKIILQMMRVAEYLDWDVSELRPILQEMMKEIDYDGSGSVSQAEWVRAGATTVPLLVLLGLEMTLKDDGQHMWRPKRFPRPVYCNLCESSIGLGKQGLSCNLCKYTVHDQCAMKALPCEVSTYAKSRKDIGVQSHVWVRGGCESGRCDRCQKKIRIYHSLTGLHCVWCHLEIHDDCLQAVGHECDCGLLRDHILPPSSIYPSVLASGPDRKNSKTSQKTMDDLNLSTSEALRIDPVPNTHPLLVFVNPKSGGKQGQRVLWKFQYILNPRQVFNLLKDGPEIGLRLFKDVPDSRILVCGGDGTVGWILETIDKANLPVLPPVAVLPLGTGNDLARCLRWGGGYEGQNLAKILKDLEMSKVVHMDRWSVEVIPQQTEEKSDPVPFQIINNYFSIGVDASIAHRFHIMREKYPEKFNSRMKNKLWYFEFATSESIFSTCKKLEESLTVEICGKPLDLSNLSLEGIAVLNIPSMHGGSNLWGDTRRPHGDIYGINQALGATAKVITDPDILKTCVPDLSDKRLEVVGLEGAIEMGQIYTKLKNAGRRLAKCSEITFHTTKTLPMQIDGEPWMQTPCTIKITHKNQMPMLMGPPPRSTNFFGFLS
T7 sequence (Q02750 whole entry): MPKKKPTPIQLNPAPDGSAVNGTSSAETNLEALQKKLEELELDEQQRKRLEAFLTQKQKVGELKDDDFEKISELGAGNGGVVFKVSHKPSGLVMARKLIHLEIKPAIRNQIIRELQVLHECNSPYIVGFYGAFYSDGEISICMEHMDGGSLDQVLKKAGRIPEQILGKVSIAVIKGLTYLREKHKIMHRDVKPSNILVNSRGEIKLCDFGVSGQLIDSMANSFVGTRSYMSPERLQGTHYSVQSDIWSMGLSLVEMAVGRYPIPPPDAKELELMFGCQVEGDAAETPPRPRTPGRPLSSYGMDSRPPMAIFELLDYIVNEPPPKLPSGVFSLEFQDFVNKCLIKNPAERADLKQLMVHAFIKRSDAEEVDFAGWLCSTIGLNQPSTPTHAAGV
T5 sequence (P09211 whole entry): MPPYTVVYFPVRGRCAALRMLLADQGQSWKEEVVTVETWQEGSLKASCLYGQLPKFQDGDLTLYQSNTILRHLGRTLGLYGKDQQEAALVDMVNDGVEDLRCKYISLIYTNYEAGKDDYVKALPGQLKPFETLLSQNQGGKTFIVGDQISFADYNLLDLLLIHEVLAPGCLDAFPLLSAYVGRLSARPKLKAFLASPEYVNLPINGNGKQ
T4 sequence (P09211 whole entry): as above
T3 sequence (P09211 whole entry): as above
T1 sequence (P09211 whole entry): as above

As to `N#Cc1ccc(S(=O)(=O)n2cnc(-c3ccc(C(F)(F)F)cc3)n2)cc1` [JWB152, 4-((3-(4-(Trifluoromethyl)phenyl)-1H-1,2,4-triazol-1-yl)sulfonyl)benzonitrile], in assay [1], the IC50 turned out to be 23 µM. Besides, the “competition against recombinant DPP3” value on human DPP3 (hDPP3) is given as “potent competition”. Further, at human GSTP1 (hGSTP1), the “block of HHS-482 labeling of GSTP1” value was “block HHS-482 labeling to levels comparable with Y8F mutant”. In addition, the “blockade of HHS-482 labeling of native GSTP1 Y8 in live cells” value at GSTP1 Y8 is reported as approximately 20%. In addition, the “HHS-482 labeling of GSTP1 after live cell treatment” value on GSTP1 was “reduced HHS-482 labeling”.
In the case of `C#CCNC(=O)c1ccc(S(=O)(=O)n2cc(CCN3CCC(=C(c4ccc(F)cc4)c4ccc(F)cc4)CC3)nn2)cc1` [TH211, 4-((4-(2-(4-(Bis(4-fluorophenyl)methylene)piperidin-1-yl)ethyl)-1H-1,2,3-triazol-1-yl)sulfonyl)-N-(prop-2-yn-1-yl)benzamide], the “Modified Amino Acid Number” value in assay [2] was found to be 172; in assay [3], 97; in assay [4] (lysine residue 152), 152; in [4] (lysine residue 159), 159; in assay [5], 24; in [6] (NDUA5 human, Uniprot Q16718), 30. Moreover, the “Modified Amino Acid Number” value in assay [6] (NDUB3 human, Uniprot O42676) was 39; in [6] (NU5M human, Uniprot P03915), 455; in [6] (PYRD human, Uniprot Q02127) it was 166. In [7], the “fluorescent labeling of recombinant human DGKA” value is on record as “concentration dependent manner”.

The values above are taken from patent US12366579B2, “Sulfur-heterocycle exchange chemistry and uses thereof” (University of Virginia Patent Foundation, priority 2019, dated 2025).
